Data set [1] deals with murine open tibial fracture. The data set is described as follows: Murine open tibial fracture model, periosteally stripped (histology, CT scans). The data set is classed as in vivo, C57BI/6 mice. The following applies: for fracture healing: 1-MT, 20 μl in PBS at fracture site.
A short description of a further data set: Aqueous solubility. The data set is classed as physicochemical.

SMILES strings stand for the structures. Read-outs that look alike come from different tables or passages of the source. A value given as a limit tells only on which side of the number the result lay.

`Cn1cc(C[C@H](N)C(=O)O)c2ccccc21` [1-MT, 1-methyl tryptophan, reference compound]: the fracture healing result in data set [1] (histology day 14 (FIG. 21)) was “accelerated fracture healing”; in data set [1] (histology day 14 (FIG. 21), listed as 1-methyl tryptophan) it was “dose dependent acceleration of fracture healing”. Besides, the “healing of tibial fractures by CT scans” value in data set [1] (28 days post injury, local administration at fracture site (TNFα 50 ng/kg and HMGB1 at time of fracture and 24 hr later) (FIG. 19, 30)) was “trend to improved healing but did not reach statistical significance”. Besides, in data set [1] (FIG. 21), the “dose of greatest response (maximal dose tested)” value came to 500 µg/mL. The “concentrations giving accelerated fracture healing” value in data set [1] (within the range tested (0.5-5 mg/kg), histology day 14 (FIG. 21)) was no less than 500 µg/mL. In addition, the results for the aqueous solubility entry in “Aqueous solubility” and in “Aqueous solubility” (listed as 1MT) were “poorly soluBIe in aqueous solutions” and “poor aqueous solubility”, respectively.

Source of the values: US20120213826A1, “Use of Pro-Inflammatory Compounds for Promoting Bone Formation” (Imperial Innovations Limited, priority 2009, published 2012).
